According to patent US5591709A, “Compositions and methods for treating wounds” (Life Medical Sciences, Inc., priority 1995, dated 1997):

System: 2×3 cm full-thickness skin wounds on the dorsum
Test: Guinea pig full-thickness skin wound closure (fractional change in wound area, closure rate, peak closure day)
Format: in vivo, Hartley-derived guinea pigs
Conditions: for Peak Closure Day (% Closure): % closure at the peak closure day; for Peak Closure Day: day of maximum closure rate, gel every 48 hours; for Closure % (Day) 50%: day on which 50% wound closure was reached, gel about 1 cc/cm^2 every 48 hours; for Peak closure rate (comparison in words): hormones in Agarose in saline (no medium), singly or three together; for Peak closure rate occurred later / closure rate of 50% slower: single hormone in Agarose in media; for Peak closure rate occurred later: compared to Media+3 hormones together; for closure rate of 50% slower: compared to the combination of the three hormones in media; for wound healing activity in medium relative to the same in saline: Agarose in medium vs Agarose in saline (without medium); for closure of 50% faster: single hormone in Agarose in saline (no medium), comparator not clearly stated
Protocol: Under general anaesthesia of […], four 2×3 cm full-thickness skin patches were surgically extirpated from the dorsum of Hartley-derived guinea pigs. After application of the gel (about 1 cc/cm^2) to the wounds, the wounds were dressed with Omiderm, a polyurethane-based synthetic wound dressing (Omikron, Israel) and anchored with gauze and elastic adhesive bandage. Change of the bandages and administration of the gels were performed every 48 hours, under general anaesthesia, at which time in one group, the wounds were washed with ESDC disinfectant (Symbollon Corp., Mass., USA), washed with warm saline, measured and photographed. Computerized morphometric measurements of the photographs were made and the dynamics of the regeneration process were quantified and analyzed. A more detailed description and the results of these experiments is presented herein. Hartley-derived Albino guinea pigs weighing 300-400 grams were used in this study. The animals were housed in individual cages and fed regularly guinea pig chow and water enriched with Vitamin C ad libitum. […] All histological sections were prepared using Hematoxylene and Eosin stain as well as Mason's trichrome method for collagen. Each animal was anesthetized and four bilaterally symmetrical full-thickness skin segments measuring 2×3 cm were excised from the dorsum of each animal, two from the scapular region and two from the lumbar region. After washing the wounds with warm saline, the wounds were dressed with the gel at a concentration of about 1 cc/cm^2, covered with a polyurethane based synthetic membrane Omiderm (Omikron, Israel) and anchored with gauze, elastic adhesive and a […]., Italy). The dressings were changed every 48 hours under general anaesthesia, at which time the wounds were washed with warm saline to remove any debris and the remaining gel within the wound, measured, photographed and fresh gel was applied and the wounds dressed as described above. In one experiment, a disinfectant compress of ESDC (Symbollon, Corp.) was applied during the change of dressing for about ten minutes, preceded and followed by warm saline rinse. At days 4, 6, 8, 10 and 12, the animals were sacrificed and the wounds with the surrounding tissues were extirpated and prepared for histological examination. The thickness of the newly formed epithelial layer and of the underlying granulation tissue were measured using light microscopy (Zeiss) at 100×magnification. The wound macrophotographs were analyzed using ImageMeasure (Phoenix Corp., Seattle, Wash.) computerized morphometric program and the experimental results were plotted as graphs showing the fractional change in area (i.e. closure rate) of the wounds treated with gel-media+hormones versus the various controls. The wound closure rate was tabulated and peak closure day (% closure) was determined. Peak closure rate has been used as a measure of wound healing potency. Peak closure rate is the maximum slope of the [formula] vs. time curve. Peak closure rate indicates the time after the start of the treatment at which tissue healing or growth rate reaches a maximum value (maximum rate); i.e., when the treatment is optimal.

N[C@@H](Cc1cc(I)c(Oc2cc(I)c(O)c(I)c2)c(I)c1)C(=O)O [thyroxine, reference compound]
concentration level relative to triiodothyronine giving the same effect (relative to triiodothyronine): 3-5 times

Growth Hormone: human growth hormone at 2 ng/ml in Agarose gel, in saline or in medium
Peak Closure Day (% Closure): 50%
Peak Closure Day: 6.0 days
Closure % (Day) 50%: 6.0 days
Peak closure rate (comparison in words): the same
Peak closure rate occurred later: 33%
closure rate of 50% slower: 75%

Insulin
Peak Closure Day (% Closure): 30%
wound healing activity in medium relative to the same in saline: substantially enhanced wound healing activity
wound healing, medium plus insulin vs medium plus IGF (Agarose in medium, IGF at 8 ng/ml, through day 9): substantially better
Peak Closure Day: 3.0 days
Closure % (Day) 50%: 5.0 days
Peak closure rate (comparison in words): the same
Peak closure rate occurred later: 33%
closure rate of 50% slower: 75%
closure of 50% faster: 15%

Triiodothyronine/thyroxine [reference compound]
Peak Closure Day (% Closure): 30%
wound healing activity in medium relative to the same in saline: substantially enhanced wound healing activity
Peak Closure Day: 3.0 days
Closure % (Day) 50%: 5.0 days
Peak closure rate (comparison in words): the same
Peak closure rate occurred later: 33%
closure rate of 50% slower: 75%
closure of 50% faster: 15%
